The text below walks through data of publication PMC6214909, “An asparagine/glycine switch governs product specificity of human N-terminal methyltransferase NTMT2” (Communications Biology, 2018).

“Also recorded” adds a separate entry of the source. Where two headings read alike, the source gives them in different places. Square brackets hold non-standard residues; d marks the D form. Ends that are not written are not given here. Peptide text beside a SMILES is read from it. NMeS = CN[C@@H](CO)C(=O)O; NMeA = CN[C@@H](C)C(=O)O

Experiment [1] has as its target T1, NTMT2 (Homo sapiens, UniProt Q5VVY1).
T1 construct: DNA encoding human NTMT2 (residues 58–278) was amplified by PCR; SUMO (His8-SUMO of the pET28-MKH8SUMO vector, with TEV site) (N, cleaved yes); made in house; host or cells: Escherichia coli BL21 (DE3)
The experiment can be described thus: Isothermal titration calorimetry, wild-type NTMT2 and peptide. Format: binding. As to the method:
ITC measurements were performed in 20 mM Tris–HCl pH 7.5, 150 mM NaCl and 0.5 mM TCEP at 25 °C using MicroCal VP-ITC instrument. The final concentrations of protein and peptide were 50–80 μM and 0.6–1.2 mM, respectively. The peptide was titrated into the protein solution with 26 injections of 10 μL each. Injections were spaced 180 s with a reference power of 15 μcal s^−1. The ITC data were processed using Origin software.

Experiment [2] deals with NTMT2-N89G mutant. The experiment can be described thus: MALDI-MS methyltransferase activity assay, NTMT2-N89G mutant. Format: biochemical, human. The settings on record: NTMT2-N89G under the same conditions (2 μM enzyme, 10 μM peptide, 200 μM SAM, pH 7.5, 37 °C, overnight). As to the method:
(§1) A mixture (36 μL) of 2 μM enzyme (NTMT1 or NTMT2), 25 mM Tris–HCl pH 7.5, 50 mM KCl and 200 μM SAM was incubated at 37 °C for 5 min. 4 μL of 100 μM peptide substrate (final concentration 10 μM) was then added to initiate the reaction. The reaction was incubated overnight and then stopped with quenching solution (20 mM NH4H2PO4, 0.4% (v/v) TFA in 1:1 acetonitrile/water). Reaction mixtures were analyzed with an Applied Biosystems Voyager matrix-assisted laser desorption/ionization time-of-flight mass spectrometer. Processing of all spectra results in Data Explorer included application of a noise filter (correlation factor of 1.0) and a baseline correction. Areas of the monoisotopic peaks for all relevant species were combined to obtain a total area for each sample. The fraction of each methylation state was calculated by summing the areas of all the monoisotopic peaks for that state ([M + H]^+, [M + Na]^+, [M + K]^+, [M – H + 2Na]^+, [M – H + 2 K]^+, and [M – H + Na + K]^+) and then dividing by the total area.

In experiment [3] the target is T1, NTMT2. The experiment can be described thus: MALDI-MS methyltransferase activity assay, NTMT2. The settings on record: 2 μM NTMT2, 10 μM peptide, 200 μM SAM, 25 mM Tris–HCl pH 7.5, 50 mM KCl, 37 °C, overnight. Format: biochemical. As to the method: as §1
Experiment [4] concerns NTMT1. The experiment can be described thus: MALDI-MS methyltransferase activity assay, NTMT1. Format: biochemical, human. The settings on record: 2 μM NTMT1, 10 μM peptide, 200 μM SAM, 25 mM Tris–HCl pH 7.5, 50 mM KCl, 37 °C, overnight. As to the method:
as §1

Experiment [5] has as its target RCC1 (Homo sapiens). The settings on record: cited from earlier work.
Experiment [6] concerns the target T2, NTMT2 (residues 58–278) N89G mutant (human, UniProt Q5VVY1 58-278, N89G).
T2 construct: N-terminal methyltransferase NTMT2 (METTL11B/NRMT2), human, residues 58-278; also called NTMT2-N89G; source: E. coli BL21 (DE3), purified with the same protocol as wild type; not shown: SUMO, N-terminal, cleaved
Description: ITC; peptide (0.6–1.2 mM) titrated into protein (50–80 μM); 20 mM Tris–HCl pH 7.5, 150 mM NaCl, 0.5 mM TCEP, 25 °C; MicroCal VP-ITC. The settings on record: both partners purified. On the technique in general: Isothermal titration calorimetry measures the heat released or taken up as one component is titrated into another.

[7] abbreviates: ITC, wild-type NTMT2, 20 mM Tris–HCl pH 7.5, 150 mM NaCl, 0.5 mM TCEP, 25 °C, ND = no detectable binding.

T1 sequence (Q5VVY1 58-278): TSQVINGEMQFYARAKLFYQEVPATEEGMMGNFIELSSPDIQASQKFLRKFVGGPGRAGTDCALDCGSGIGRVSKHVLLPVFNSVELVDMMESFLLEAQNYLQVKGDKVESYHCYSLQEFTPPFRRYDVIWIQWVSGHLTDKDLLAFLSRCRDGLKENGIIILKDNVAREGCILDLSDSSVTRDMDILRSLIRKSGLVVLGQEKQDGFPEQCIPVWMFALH
T2 sequence (Q5VVY1 58-278 N89G): as the sequence (Q5VVY1 58-278) above, with N32G counted along it

As usually defined, the Kd is the free concentration of one partner at which half of the binding sites on the other are occupied at equilibrium, for simple one-to-one binding. In the case of `CC[C@H](C)[C@H](NC(=O)[C@H](CCCNC(=N)N)NC(=O)[C@H](CCCCN)NC(=O)[C@@H]1CCCN1C(=O)[C@H](CO)NC)C(=O)N[C@@H](C)C(=O)O` [Sme1PKRIA] (H-[NMeS]PKRIA-OH), the Kd entry in experiment [1] (setting [7]) is “barely demonstrated any binding affinity; also recorded: does not bind”.
Still for that read-out and setting: under `CC[C@H](C)[C@H](NC(=O)[C@H](CCCNC(=N)N)NC(=O)[C@H](CCCCN)NC(=O)[C@@H]1CCCN1C(=O)[C@H](C)NC)C(=O)N[C@@H](C)C(=O)O` [Ame1PKRIA] (H-[NMeA]PKRIA-OH) stands “no detectable binding; also recorded: does not bind”.
For “MPKRIA [synthetic XPKRIA hexapeptide substrate, X = M]”, in experiment [2], the Di-methylated fraction was 0.00%, the Mono-methylated fraction stood at 100.00%, the Trimethylated fraction is reported as 0.00% and the Unmethylated fraction is 0.00%. In experiment [3], this molecule had a Di-methylated fraction of 0.00%, a Mono-methylated fraction of 41.45%, a Trimethylated fraction of 0.00% and an Unmethylated fraction of 58.55%. For the same molecule, in experiment [4], the Di-methylated fraction is listed as 91.26%, the Mono-methylated fraction was 0.00%, the Trimethylated fraction stood at 8.74% and the Unmethylated fraction is 0.00%.
Turning to “NPKRIA [synthetic XPKRIA hexapeptide substrate, X = N]”, in experiment [2], the Di-methylated fraction is 0.00%, the Mono-methylated fraction turned out to be 21.58% and the Trimethylated fraction is 0.00%. In experiment [3], this molecule registered a Di-methylated fraction of 0.00%, a Mono-methylated fraction of 0.00%, a Trimethylated fraction of 0.00% and an Unmethylated fraction of 100.00%. In experiment [4], this molecule showed a Di-methylated fraction of 100.00%, a Mono-methylated fraction of 0.00%, a Trimethylated fraction of 0.00% and an Unmethylated fraction of 0.00%.
With “KPKRIA [synthetic XPKRIA hexapeptide substrate, X = K]”, in experiment [2], the Di-methylated fraction was 0.00%, the Mono-methylated fraction is listed as 20.40%, the Trimethylated fraction is reported as 0.00% and the Unmethylated fraction stood at 79.60%. In experiment [3], this molecule came in with a Di-methylated fraction of 0.00%, a Mono-methylated fraction of 5.19%, a Trimethylated fraction of 0.00% and an Unmethylated fraction of 94.81%. Also, in experiment [4], the Di-methylated fraction is given as 96.14%, the Mono-methylated fraction was 0.00%, the Trimethylated fraction was determined as 3.86% and the Unmethylated fraction was found to be 0.00%.
In the case of “IPKRIA [synthetic XPKRIA hexapeptide substrate, X = I]”, in experiment [2], the Di-methylated fraction came to 0.00%, the Mono-methylated fraction is recorded as 5.08%, the Trimethylated fraction was 0.00% and the Unmethylated fraction was 94.92%. In experiment [3], the Di-methylated fraction is 0.00%, the Mono-methylated fraction was found to be 0.00%, the Trimethylated fraction is listed as 0.00% and the Unmethylated fraction is on record as 100.00%. In experiment [4], this molecule yielded a Di-methylated fraction of 20.10%, a Mono-methylated fraction of 43.34%, a Trimethylated fraction of 0.00% and an Unmethylated fraction of 36.56%.
As for NTMT1 (from UniProt Q9BV86), in experiment [5], the Kd was 0.8 µM.
In experiment [2], “EPKRIA [synthetic XPKRIA hexapeptide substrate, X = E]” gave a Di-methylated fraction of 0.00%, a Mono-methylated fraction of 0.00%, a Trimethylated fraction of 0.00% and an Unmethylated fraction of 100.00%. In experiment [3], this molecule registered a Di-methylated fraction of 0.00%, a Mono-methylated fraction of 0.00%, a Trimethylated fraction of 0.00% and an Unmethylated fraction of 100.00%. In experiment [4], this molecule returned a Di-methylated fraction of 0.00%, a Mono-methylated fraction of 10.70%, a Trimethylated fraction of 0.00% and an Unmethylated fraction of 89.30%.
For the molecule SPKRIA [SPKRIA], the Kd in experiment [1] (read-out: Kd) amounted to 18 µM. In experiment [3], this molecule returned a Di-methylated fraction of 0.00%, a Mono-methylated fraction of 46.39%, a Trimethylated fraction of 0.00% and an Unmethylated fraction of 53.61%.
In the case of “DPKRIA [synthetic XPKRIA hexapeptide substrate, X = D]”, in experiment [2], the Di-methylated fraction is on record as 0.00%, the Mono-methylated fraction was found to be 0.00%, the Trimethylated fraction was found to be 0.00% and the Unmethylated fraction turned out to be 100.00%. In experiment [3], this molecule gave a Di-methylated fraction of 0.00%, a Mono-methylated fraction of 0.00%, a Trimethylated fraction of 0.00% and an Unmethylated fraction of 100.00%. In experiment [4], this molecule came in with a Di-methylated fraction of 0.00%, a Mono-methylated fraction of 9.37%, a Trimethylated fraction of 0.00% and an Unmethylated fraction of 90.64%.

B1: Sme1PKRIA peptide (methylated SPKRIA) (peptide)
peptide: [NMeS]PKRIA
notes: N-terminal hexapeptide of regulator of chromatin condensation 1 (RCC1), without the initiator methionine, alpha-N-monomethylated; also called mono-methylated SPKRIA
Take B1: binding in experiment [6] was characterised by a dissociation constant (Kd) of 36 µM.

B2: Ame1PKRIA peptide (peptide)
peptide: [NMeA]PKRIA
notes: XPKRIA peptide derived from the RCC1 N-terminal hexapeptide SPKRIA, with alanine at the first position, alpha-N-monomethylated; also called mono-methylated APKRIA
In turn, B2 yielded a Kd in experiment [6] of 32 µM.
